Measurements: US7601736B2, “Pyridine derivatives, a process for their preparation and a pharmaceutical composition containing the same” (SK Chemicals Co., Ltd., priority 2003, dated 2009)

System: TNF-α
Experiment: Cytokine inhibitory activity in cells: LPS-induced TNF-α in RAW 264.7
Format: cell-based, murine
Conditions: for inhibition at 1 µM / inhibition at 10 µM / inhibition at 100 µM / inhibition at 1000 µM: Mus musculus, RAW264.7, read-out: TNF-α Inhibition Rate (%); for inhibition at 1 µM / inhibition at 10 µM / inhibition at 100 µM / inhibition at 1000 µM / TNF-α Inhibition Rate (%): RAW 264.7, LPS 1 μg/mL; for inhibitory activity in RAW 264.7 cell line on the production of TNF-α, in words: compared to the control compounds
Description: General reagents used were purchased from Sigma-Aldrich chem. Co. and cytokine inhibitory activities were tested as follows. Mediums and reagents used in cell culture were purchased from GIBCO BRL (USA), and mouse TNF-α ELISA kit was purchased from R&D system (USA). The apparatus used ELISA reader (Spectra max-Plus 384, Molecular Device, USA).
Murine macrophage cell line RAW 264.7 was kindly provided by Korean Tissue Culture Center (KTCC). The cell line was cultured in DMEM medium containing 10% FBS, in a cell culturing device at the condition of 37° C., 5% CO2. First, murine RAW 264.7 was cultured in DMEM medium containing 10% FBS for about 24 hours, and cells were planted 200 μL each in 96 well plates at the concentration of 5×10^5/mL and cultured for about 24 hours. Then, test compounds were treated at various concentrations and then reacted at 37° C. for about 1 hour, wherein 1 μg/mL of lipopolysaccharide (LPS) was added thereto and reacted at 37° C. for about 12 hours. The supernatant was recovered and the amount of murine TNF-α on the medium was quantitated using ELISA kit. Thalidomide was respectively used as a positive and a negative control to compare the activities and the results are shown in the following tables 4a -4c.

| Compound | inhibition at 1 µM (test conc. 1 μM) | inhibition at 10 µM (test conc. 10 μM) | inhibition at 100 µM (test conc. 100 μM) | inhibition at 1000 µM (test conc. 1 mM) | inhibitory activity in RAW 264.7 cell line on the production of TNF-α, in words | TNF-α Inhibition Rate (%) (test conc. 1 μM) | TNF-α Inhibition Rate (%) (test conc. 10 μM) | TNF-α Inhibition Rate (%) (test conc. 100 μM) | TNF-α Inhibition Rate (%) (test conc. 1 mM) |
| --- | --- | --- | --- | --- | --- | --- | --- | --- | --- |
| Cc1cc2c(c(Cl)n1)C(=O)OCC2 [Ex. 20, 8-chloro-6-methyl-3,4-dihydro-pyrano[3,4-c]pyridine-1-on] | 15% | 21% | 31% | 41% |  |  |  |  |  |
| COc1nc(C)cc2c1C(=O)OCC2 [Ex. 22, 8-methoxy-6-methyl-3,4-dihydro-pyrano[3,4-c]pyridine-1-on] |  | 10% | 17% | 30% |  |  |  |  |  |
| Cc1cc2c(c(C)n1)C(=O)OCC2 [Ex. 26, 6,8-dimethyl-3,4-dihydro-pyrano[3,4-c]pyridine-1-on] |  | 6% | 17% | 28% |  |  |  |  |  |
| Cc1cc2c(c(-c3ccco3)n1)C(=O)OCC2 [Ex. 27, 6-methyl-8-furan-2-yl-3,4-dihydro-pyrano[3,4-c]pyridine-1-on] | 30% | 43% | 68% | 81% |  |  |  |  |  |
| Cc1cc2c(c(-c3cccs3)n1)C(=O)OCC2 [Ex. 28, 6-methyl-8-thiophene-2-yl-3,4-dihydro-pyrano[3,4-c]pyridine-1-on] | 8% | 27% | 37% | 59% |  |  |  |  |  |
| Cc1cc2c(c(-c3ccccn3)n1)C(=O)OCC2 [Ex. 29, 6-methyl-8-pyridine-2-yl-3,4-dihydro-pyrano[3,4-c]pyridine-1-on] | 10% | 15% | 18% | 30% |  |  |  |  |  |
| Cc1cc2c(c(-c3ccc(Cl)cc3)n1)C(=O)OCC2 [Ex. 31, 8-(4-chloro-phenyl)-6-methyl-3,4-dihydro-pyrano[3,4-c]pyridine-1-on] | 100% | 100% | 100% | 100% | superiorities over to the control compounds |  |  |  |  |
| Cc1cc2c(c(N3CCN(C)CC3)n1)C(=O)OCC2 [Ex. 34, 6-methyl-8-(4-methyl-piperazine-1-yl)-3,4-dihydro-pyrano[3,4-c]pyridine-1-on] | 58% | 62% | 70% | 80% |  |  |  |  |  |
| Cc1cc2c(c(Nc3ccc(F)cc3)n1)C(=O)OCC2 [Ex. 35, 8-(4-fluoro-phenylamino)-6-methyl-3,4-dihydro-pyrano[3,4-c]pyridine-1-on] | 9% | 17% | 26% | 32% |  |  |  |  |  |
| Cc1cc2c(c(Nc3ccc(Cl)cc3)n1)C(=O)OCC2 [Ex. 37, 8-(4-chloro-phenylamino)-6-methyl-3,4-dihydro-pyrano[3,4-c]pyridine-1-on] | 54% | 69% | 78% | 89% |  |  |  |  |  |
| Cc1ccc(Nc2nc(C)cc3c2C(=O)OCC3)cc1 [Ex. 39, 6-methyl-8-p-tolylamino-3,4-dihydro-pyrano[3,4-c]pyridine-1-on] | 9% | 22% | 31% | 40% |  |  |  |  |  |
| Cc1cc2c(c(-c3ccccc3)n1)C(=O)OCC2 [Ex. 46, 6-methyl-8-phenyl-3,4-dihydro-pyrano[3,4-c]pyridine-1-on] | 3% | 9% | 19% | 29% |  |  |  |  |  |
| Cc1cc2c(c(Oc3ccccc3)n1)C(=O)OCC2 [Ex. 50, 6-methyl-8-phenoxy-3,4-dihydro-pyrano[3,4-c]pyridine-1-on] | 5% | 9% | 19% | 25% |  |  |  |  |  |
| Cc1cc2c(c(NCc3ccccc3)n1)C(=O)OCC2 [Ex. 51, 8-benzylamino-6-methyl-3,4-dihydro-pyrano[3,4-c]pyridine-1-on] | 9% | 15% | 21% | 30% |  |  |  |  |  |
| Cc1nc(O)c2c(c1-c1ccccc1)CCOC2=O [Ex. 60, 8-hydroxy-6-methyl-5-phenyl-3,4-dihydro-pyrano[3,4-c]pyridine-1-on] | 39% | 48% | 56% | 78% |  |  |  |  |  |
| Cc1nc(Cl)c2c(c1-c1ccccc1)CCOC2=O [Ex. 61, 8-chloro-6-methyl-5-phenyl-3,4-dihydro-pyrano[3,4-c]pyridine-1-on] | 87% | 100% | 100% | 100% | superiorities over to the control compounds |  |  |  |  |
| Cc1ncc2c(c1-c1ccccc1)CCOC2=O [Ex. 62, 6-methyl-5-phenyl-3,4-dihydro-pyrano[3,4-c]pyridine-1-on] | 60% | 78% | 89% | 100% | superiorities over to the control compounds |  |  |  |  |
| O=C1OCCc2cc(-c3ccccc3)ncc21 [Ex. 68, 6-phenyl-3,4-dihydro-pyrano[3,4-c]pyridine-1-on] | 50% | 58% | 65% | 76% |  |  |  |  |  |
| O=C1OCCc2cc(-c3ccccc3)nc(Cl)c21 [Ex. 73, 8-chloro-6-phenyl-3,4-dihydro-pyrano[3,4-c]pyridine-1-on] | 56% | 63% | 72% | 80% |  |  |  |  |  |
| Cc1nc(Cl)cc2c1C(=O)OCC2 [Ex. 96, 6-chloro-8-methyl-3,4-dihydro-pyrano[3,4-c]pyridine-1-on] | 38% | 46% | 56% | 63% |  |  |  |  |  |
| Cc1nc(-c2cccs2)cc2c1C(=O)OCC2 [Ex. 97, 8-methyl-6-(thiophene-2-yl)-3,4-dihydro-pyrano[3,4-c]pyridine-1-on] | 75% | 84% | 93% | 100% | superiorities over to the control compounds |  |  |  |  |
| Cc1nc(-c2ccco2)cc2c1C(=O)OCC2 [Ex. 98, 6-(furan-2-yl)-8-methyl-3,4-dihydro-pyrano[3,4-c]pyridine-1-on] | 56% | 64% | 72% | 87% |  |  |  |  |  |
| Cc1nc(-c2ccc3c(c2)OCO3)cc2c1C(=O)OCC2 [Ex. 99, 6-(benzo[d][1,3]dioxol-6-yl)-8methyl-3,4-dihydro-pyrano[3,4c]pyridine-1-on] |  |  |  |  |  | 9% | 19% | 22% | 35% |
| Cc1nc(-c2ccc(N(C)C)cc2)cc2c1C(=O)OCC2 [Ex. 100, 6-(4-(dimethylamino)phenyl)-8-methyl-3,4-dihydro-pyrano[3,4-c]pyridine-1-on] |  | 9% | 18% | 29% |  |  |  |  |  |
| O=C1OCCc2c1cnc1ccccc21 [Ex. 112, 3,4-dihydro-2-oxa-9-aza-phenanthrene-1-on] | 24% | 28% | 33% | 35% |  |  |  |  |  |
